{
  "source": "PubChem BioAssay AID2060486",
  "about": "(Molecular Pharmacology Branch, DTP, NCI, 2025)",
  "tested_on": "IGROV1 complex spheroids (HUVEC, MSC), viability % test/control",
  "test": "Anticancer human tumor IGROV1 cell line growth inhibition [GQUAD];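 further: spheroids exposed to compounds for 7 days before readout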",
  "settings": "for IC50: curve of first compound; for viability, T/C: stronger effect = lower value",
  "from_the_text": "DNA G-quadruplex Stabilizer Agents in Combinations in Complex Spheroids\nA high-throughput screen of multi-cell type tumor spheroids was designed to identify active combinations of DNA G-quadruplex stabilizer agents and targeted small molecules. Complex spheroids include a stromal component modeled by human endothelial cells (HUVEC) and fibroblasts modeled by human mesenchymal stem cells (MSCs). The concentration ranges selected for each drug and investigational agent were based upon clinically achievable concentrations if the clinical Cmax of the agent was known.\nCompounds. The drugs and investigational agents: pidnarulex (CX-5461; NSC782164), APTO-253 (NSC789042), BRACO-19 (NSC847499), peposertib (NSC802822), ceralasertib (NSC780249), elimusertib (NSC800525), camonsertib (NSC841442), AZD-1390 (NSC803789), olaparib (NSC753686), talazoparib (NSC767125), ART-558 (NSC835418), sotorasib (NSC818433), MRTX-1133 (NSC836407), SN-38 (NSC673596), topotecan (NSC609699), etoposide (NSC141540), doxorubicin (NSC123127), gemcitabine (NSC613327), 5-fluorouracil (NSC19893), paclitaxel (NSC125973), vemurafenib (NSC761431), panobinostat (NSC761190), R-306465 (JNJ-16241199; NSC773264), adavosertib (NSC754352), TP-3654 (NSC805149), carboplatin (NSC241240), KSQ-4279 (NSC840948), and staurosporine (NSC755774) were obtained from the National Cancer Institute (NCI) Developmental Therapeutics Program Chemical Repository (34). The FDA-approved anticancer drug set is available from the NCI Developmental Therapeutics Program. […] The stock solutions were prepared in dimethyl sulfoxide (DMSO, Sigma-Aldrich, St. Louis, MO, cat. D2650) at 800-fold the tested concentration and stored at -70 degrees C prior to their use. All drugs and investigational agents were tested over a range starting from a high concentration at or near the clinical Cmax and decreasing in half-log increments. If the clinical Cmax for an agent had not been determined, the highest concentration tested was 10 microM.\n2.3 Cell Culture. All cells were maintained in an incubator at 37 degrees C and 5% CO2 with 95% humidity. The PDC lines were cultured according to standard operating procedures established by the NCI PDMR. All PDCs were thawed and cultured in Matrigel-coated flasks prepared with a working solution of 1X Ham's F-12 nutrient mix, without supplementation (Invitrogen, cat. 11765054), 100 U/mL penicillin-streptomycin (Invitrogen, cat. 15140122), and 2.5% Matrigel (Corning Inc., cat. 354248) for the first three passages. The 857933-349-R-J2-PDC line was cultured in 6C/Colon 1B media, which includes advanced DMEM/F-12 (Thermo Fisher Scientific, cat. 12634028), 10 mM HEPES (Thermo Fisher Scientific, cat. 15630080), 1X GlutaMAX supplement (Thermo Fisher Scientific, cat. 35050061), 0.1 mg/mL primocin (InvivoGen, cat. ant-pm-2), 10% defined fetal bovine serum, heat inactivated (HyClone Laboratories Inc., cat. SH30070.03HI), 50% L-WRN conditioned media (ATCC, cat. CRL-3276), 1.25 mM N-Acetyl-L-cysteine (Sigma-Aldrich, cat. A9165), 10 mM nicotinamide (Sigma-Aldrich, cat. N0636), 1X B-27 supplement (Thermo Fisher Scientific, cat. 17504044), 1X N-2 supplement (Thermo Fisher Scientific, cat. 17502048), 10 microM Y-27632 dihydrochloride (Tocris Bioscience, cat. 1254), and 50 ng/mL human EGF recombinant protein (Thermo Fisher Scientific, cat. PHG0311). The 485176-168-R4-J1-PDC line was cultured in Panc media, which includes all 6C/Colon 1B media components plus 100 ng/mL human FGF-10 (Thermo Fisher Scientific, cat. 100-26), 500 nM SB-431542 (Selleckchem, cat. S1067), and gastrin (Tocris, cat. 3006).\n[…]",
  "data": [
    {"smiles": "Cc1cccc(N(C)C(=O)C2C(O)CCN2c2nc(C)cc(C(F)(F)F)c2C#N)c1", "note": "(configuration not stated) + Cc1[nH]c2ccc(F)cc2c1-c1nc2c3cccnc3c3ncccc3c2[nH]1", "values": [
      {"measurement": "IC50", "setting": "second compound 0.0316 µM", "value": "> 10", "unit": "µM"},
      {"measurement": "IC50", "setting": "second compound 0.1 µM", "value": "> 10", "unit": "µM"},
      {"measurement": "IC50", "setting": "second compound 0.316 µM", "value": "> 10", "unit": "µM"},
      {"measurement": "IC50", "setting": "second compound 1 µM", "value": "< 0.0316", "unit": "µM"},
      {"measurement": "IC50", "setting": "second compound 3.16 µM", "value": "< 0.0316", "unit": "µM"},
      {"measurement": "IC50", "setting": "second compound 10 µM", "value": "< 0.0316", "unit": "µM"},
      {"measurement": "viability, T/C", "setting": "second compound 0.0316 µM, first compound 0.0316 µM", "value": 108, "unit": "%"},
      {"measurement": "viability, T/C", "setting": "second compound 0.0316 µM, first compound 0.1 µM", "value": 82.3, "unit": "%"},
      {"measurement": "viability, T/C", "setting": "second compound 0.0316 µM, first compound 0.316 µM", "value": 105, "unit": "%"},
      {"measurement": "viability, T/C", "setting": "second compound 0.0316 µM, first compound 1 µM", "value": 76.1, "unit": "%"},
      {"measurement": "viability, T/C", "setting": "second compound 0.0316 µM, first compound 3.16 µM", "value": 98, "unit": "%"},
      {"measurement": "viability, T/C", "setting": "second compound 0.0316 µM, first compound 10 µM", "value": 100, "unit": "%"},
      {"measurement": "viability, T/C", "setting": "second compound 0.1 µM, first compound 0.0316 µM", "value": 105, "unit": "%"},
      {"measurement": "viability, T/C", "setting": "second compound 0.1 µM, first compound 0.1 µM", "value": 82.2, "unit": "%"},
      {"measurement": "viability, T/C", "setting": "second compound 0.1 µM, first compound 0.316 µM", "value": 107, "unit": "%"},
      {"measurement": "viability, T/C", "setting": "second compound 0.1 µM, first compound 1 µM", "value": 69.1, "unit": "%"},
      {"measurement": "viability, T/C", "setting": "second compound 0.1 µM, first compound 3.16 µM", "value": 105, "unit": "%"},
      {"measurement": "viability, T/C", "setting": "second compound 0.1 µM, first compound 10 µM", "value": 105, "unit": "%"},
      {"measurement": "viability, T/C", "setting": "second compound 0.316 µM, first compound 0.0316 µM", "value": 83.7, "unit": "%"},
      {"measurement": "viability, T/C", "setting": "second compound 0.316 µM, first compound 0.1 µM", "value": 53.2, "unit": "%"},
      {"measurement": "viability, T/C", "setting": "second compound 0.316 µM, first compound 0.316 µM", "value": 70, "unit": "%"},
      {"measurement": "viability, T/C", "setting": "second compound 0.316 µM, first compound 1 µM", "value": 78.8, "unit": "%"},
      {"measurement": "viability, T/C", "setting": "second compound 0.316 µM, first compound 3.16 µM", "value": 94.7, "unit": "%"},
      {"measurement": "viability, T/C", "setting": "second compound 0.316 µM, first compound 10 µM", "value": 76.3, "unit": "%"},
      {"measurement": "viability, T/C", "setting": "second compound 1 µM, first compound 0.0316 µM", "value": 4, "unit": "%"},
      {"measurement": "viability, T/C", "setting": "second compound 1 µM, first compound 0.1 µM", "value": 6.22, "unit": "%"},
      {"measurement": "viability, T/C", "setting": "second compound 1 µM, first compound 0.316 µM", "value": 5.36, "unit": "%"},
      {"measurement": "viability, T/C", "setting": "second compound 1 µM, first compound 1 µM", "value": 4.57, "unit": "%"},
      {"measurement": "viability, T/C", "setting": "second compound 1 µM, first compound 3.16 µM", "value": 4.11, "unit": "%"},
      {"measurement": "viability, T/C", "setting": "second compound 1 µM, first compound 10 µM", "value": 2.68, "unit": "%"},
      {"measurement": "viability, T/C", "setting": "second compound 3.16 µM, first compound 0.0316 µM", "value": 3.63, "unit": "%"},
      {"measurement": "viability, T/C", "setting": "second compound 3.16 µM, first compound 0.1 µM", "value": 4.69, "unit": "%"},
      {"measurement": "viability, T/C", "setting": "second compound 3.16 µM, first compound 0.316 µM", "value": 4.7, "unit": "%"},
      {"measurement": "viability, T/C", "setting": "second compound 3.16 µM, first compound 1 µM", "value": 4.75, "unit": "%"},
      {"measurement": "viability, T/C", "setting": "second compound 3.16 µM, first compound 3.16 µM", "value": 3.97, "unit": "%"},
      {"measurement": "viability, T/C", "setting": "second compound 3.16 µM, first compound 10 µM", "value": 2.92, "unit": "%"},
      {"measurement": "viability, T/C", "setting": "second compound 10 µM, first compound 0.0316 µM", "value": 4.3, "unit": "%"},
      {"measurement": "viability, T/C", "setting": "second compound 10 µM, first compound 0.1 µM", "value": 3.62, "unit": "%"},
      {"measurement": "viability, T/C", "setting": "second compound 10 µM, first compound 0.316 µM", "value": 4.75, "unit": "%"},
      {"measurement": "viability, T/C", "setting": "second compound 10 µM, first compound 1 µM", "value": 3.64, "unit": "%"},
      {"measurement": "viability, T/C", "setting": "second compound 10 µM, first compound 3.16 µM", "value": 4.04, "unit": "%"},
      {"measurement": "viability, T/C", "setting": "second compound 10 µM, first compound 10 µM", "value": 3.25, "unit": "%"}
    ]}
  ]
}
